Experimental findings from publication PMC9196953 (Drug development research, 1999) are described below.

For orientation: Ki means the equilibrium dissociation constant of an inhibitor or competing ligand from its target.

In experiment [1] the target is T1, rat A2A receptors (Rattus norvegicus, UniProt P30543).
T1 construct: to A2A receptors from rat striatal membranes; from tissue; host or cells: rat striatal membranes
The experiment in a line: Displacement of [3H]CGS 21680 binding to A2A receptors in rat striatal membranes. Conditions: for Ki: read-out: Ki rA2A. The method, then:
(§1) All nonradioactive compounds were initially dissolved in DMSO and diluted with buffer to the final concentration, where the amount of DMSO never exceeded 2%. Incubations were terminated by rapid filtration over Whatman GF/B filters using a Brandell cell harvester. The tubes were rinsed three times with 3 mL buffer each.
(§2) At least six different concentrations of competitor, spanning 3 orders of magnitude adjusted appropriately for the IC50 value of each compound, were used. IC50 values, calculated with the nonlinear regression method implemented in Graph-Pad Prism (San Diego, CA) were converted to apparent Ki values as described by [Linden [1982]]. Hill coefficients of the tested compounds were in the range of 0.8–1.1.
(§3) At A2B receptors, two radioligand binding assays (Table 1) were used. Ki values of xanthine derivatives were determined in displacement of binding of the non-selective radioligands […], 8 (4-(2-[7-amino-2-{furyl}{1,2,4}triazolo{2,3-a}{1,3,5}tr nzyl)-8-phenyloxyacetate-1-propyl-xanthine), at human A2B receptors expressed in HEK-293 cell membranes [[Linden and Jacobson, 1998]]. In order to evaluate selectivity, selected derivatives were subjected to standard binding assays at A1, A2A, and A3 receptors. The initial screening utilized rat brain A1/A2A receptors (with radioligands [^3H]R-PIA and [^3H]CGS-21680), and selected compounds were examined at the recombinant human subtypes (Table 1), using [^3H]CPX ([^3H]8-cyclopentyl-1,3-dipropylxanthine) and ^125I-ZM 241385, ^125I-4-(2-[7-amino-2-[2-furyl][1,2,4]triazolo[2,3-a][1,3,5]triazin-5-yl-amino]ethyl)phenol) [[Palmer et al., 1996]].

Experiment [2] addresses T2, human A2B receptors (Homo sapiens, UniProt P29275).
T2 construct: expressed in transfected cells; host or cells: HEK-293
T2 sequence (P29275 1-332): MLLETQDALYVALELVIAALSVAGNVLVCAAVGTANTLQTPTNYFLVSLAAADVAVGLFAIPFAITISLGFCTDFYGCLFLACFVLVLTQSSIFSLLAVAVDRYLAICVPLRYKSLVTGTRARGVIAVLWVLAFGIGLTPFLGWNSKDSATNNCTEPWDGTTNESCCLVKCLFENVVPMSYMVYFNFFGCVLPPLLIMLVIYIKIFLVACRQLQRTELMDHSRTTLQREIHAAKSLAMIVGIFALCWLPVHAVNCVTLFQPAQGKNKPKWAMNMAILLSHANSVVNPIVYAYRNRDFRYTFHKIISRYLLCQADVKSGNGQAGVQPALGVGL
Nature of the experiment: Binding at human A2B receptors expressed in HEK-293 cells vs [125I]-ABOPX. The settings on record: read-out: Ki hA2B (converted). As for the experimental part:
The human A2B receptor cDNA was subcloned into the expression plasmid pDoubleTrouble [[Robeva et al., 1996a]]. The plasmid was amplified in competent JM109 cells and plasmid DNA isolated using Wizard Megaprep columns (Promega Corp., Madison, WI).
Transfected HEK cells were grown under 5% CO2/[…] humidified atmosphere at a temperature of 37°C. Colonies were selected by growth of cells in 0.6 mg/mL G418. Transfected cells were maintained in DMEM supplemented with Hams F12 nutrient mixture (1/1), 10% newborn calf serum, 2 mM glutamine, and containing 50 IU/mL penicillin, 50 μg/mL streptomycin, and 0.2 mg/mL Geneticin (G418, Boehringer Mannheim, Indianapolis, IN). Cells were cultured in 10 cm diameter round plates and subcultured when grown confluent (approximately after 72 h).
Confluent monolayers of HEK-A2B cells were washed with PBS followed by ice-cold Buffer A (10 mM HEPES, 10 mM EDTA, pH 7.4) with protease inhibitors ([…] benzamidine, […], and […] of each aprotinin, pepstatin, and leupeptin). The cells were homogenized in a Polytron (Brinkmann) for 20 sec, centrifuged at 30,000g, and the pellets washed twice with buffer HE (10 mM HEPES, 1 mM EDTA, pH 7.4 with protease inhibitors). The final pellet was resuspended in buffer HE, supplemented with 10% sucrose and frozen in aliquots at −80°C. For binding assays, membranes were thawed and diluted 5–10-fold with HE to a final protein concentration of approximately 1 mg/mL. To determine protein concentrations, membranes, and bovine serum albumin standards were dissolved in 0.2% NaOH/0.01% SDS and protein determined using fluorescamine fluorescence [[Stowell et al., 1978]]. […] To prepare [^125I-]ABOPX, […] of 1 mM ABOPX in methanol/1 M NaOH (20:1) was added to […] of 100 mM phosphate buffer, pH 7.3. One or 2 mCi of Na^125I was added, followed by […] of 1 mg/mL chloramine-T in water. After incubating for 20 min at room temperature, 50 mL of 10 mg/mL Na-metabisulfite in water was added the quench the reaction. The reaction products were applied to a C18 HPLC column using 4 mM phosphate, pH 6.0/methanol. After 5 min in 35% methanol, the methanol concentration was ramped to 100% over 15 min. Unreacted ABOPX eluted in 11–12 min; [^125I-]ABOPX eluted at 18–19 min in a yield of 50–60% of the initial ^125I. In equilibrium binding assays the ratio of [^127I/^125I-]ABOPX was 10–20/1. […] The incubation time was 3 h at 21°C. […] Competition experiments were carried out using 0.6 nM ^125I-ABOPX. Membranes were filtered on Whatman GF/C filters using a Brandell cell harvester (Gaithersburg, MD) and washed three times over 15–20 sec with ice-cold buffer (10 mM Tris, 1 mM MgCl2, pH 7.4). Bmax and KD values were calculated by Marquardt’s nonlinear least squares interpolation for single site binding models [[Marquardt, 1963]]. Ki values for different compounds were derived from IC50 values as described previously [[Linden, 1982]]. Data from replicate experiments are tabulated as means ± SEM.
as §3

For experiment [3], the target named is T3, human A1 receptors (Homo sapiens, UniProt P30542).
T3 construct: expressed in transfected cells; host or cells: HEK-293
T3 sequence (P30542 1-326): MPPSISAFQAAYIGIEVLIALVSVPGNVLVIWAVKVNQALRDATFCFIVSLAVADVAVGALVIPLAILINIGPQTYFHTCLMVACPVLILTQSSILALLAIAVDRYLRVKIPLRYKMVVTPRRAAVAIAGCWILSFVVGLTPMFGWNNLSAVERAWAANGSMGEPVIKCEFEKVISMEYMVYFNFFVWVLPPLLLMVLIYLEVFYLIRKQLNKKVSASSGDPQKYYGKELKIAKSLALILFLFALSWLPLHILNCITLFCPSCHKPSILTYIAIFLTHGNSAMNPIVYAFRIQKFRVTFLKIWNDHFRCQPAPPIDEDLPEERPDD
The experiment in a line: Binding at recombinant human A1 receptors expressed in HEK-293 cells vs [3H]CPX. Conditions: recombinant human A1 in HEK-293 cells. The method, then:
as §1, §2, §3

In experiment [4] the target is T4, human A2A receptors (Homo sapiens, UniProt P29274).
T4 construct: expressed in transfected cells; host or cells: HEK-293
Nature of the experiment: Binding at recombinant human A2A receptors expressed in HEK-293 cells vs [125I]ZM241385. The settings on record: recombinant human A2A in HEK-293 cells, read-out: Ki A2A (h) (converted). As for the experimental part:
as §1, §2, §3

T4 sequence (P29274 whole entry): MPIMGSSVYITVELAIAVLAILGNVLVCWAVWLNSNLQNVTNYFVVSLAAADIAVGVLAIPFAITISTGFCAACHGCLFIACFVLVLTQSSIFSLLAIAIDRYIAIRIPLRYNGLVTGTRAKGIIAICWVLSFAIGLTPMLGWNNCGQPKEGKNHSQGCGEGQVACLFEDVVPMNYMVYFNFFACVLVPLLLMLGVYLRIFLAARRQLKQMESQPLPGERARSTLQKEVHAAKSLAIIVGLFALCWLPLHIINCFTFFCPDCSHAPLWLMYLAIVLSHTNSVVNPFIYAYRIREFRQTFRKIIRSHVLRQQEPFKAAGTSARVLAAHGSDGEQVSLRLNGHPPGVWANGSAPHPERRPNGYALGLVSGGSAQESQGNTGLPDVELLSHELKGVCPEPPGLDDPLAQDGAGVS
T1 sequence (P30543 whole entry): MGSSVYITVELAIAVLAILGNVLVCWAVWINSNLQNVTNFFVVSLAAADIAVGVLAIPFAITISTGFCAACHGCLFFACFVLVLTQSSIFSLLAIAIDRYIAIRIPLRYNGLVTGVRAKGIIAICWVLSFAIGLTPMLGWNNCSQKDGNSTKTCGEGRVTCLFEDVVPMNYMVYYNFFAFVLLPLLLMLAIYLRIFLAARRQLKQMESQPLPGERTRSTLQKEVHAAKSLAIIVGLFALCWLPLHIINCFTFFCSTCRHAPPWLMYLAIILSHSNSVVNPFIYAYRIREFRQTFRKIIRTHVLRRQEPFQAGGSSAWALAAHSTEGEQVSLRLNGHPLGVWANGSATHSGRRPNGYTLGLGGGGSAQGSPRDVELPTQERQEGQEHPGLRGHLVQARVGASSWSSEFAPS

`CCCn1c(=O)c2[nH]c(-c3ccc(OCC(=O)NNC(C)=O)cc3)nc2n(CCC)c1=O` [Compound 4e, 8-[4-[(Carboxymethyl)oxy]phenyl]-1,3-di-(n-propyl)xanthine N-Acetylhydrazide]: the inhibition constant (Ki) was 0.227 ± 0.064 µM in experiment [1], 0.0338 µM in experiment [2], 0.125 µM in experiment [3] and 0.186 µM in experiment [4].
Taken in the same sequence, the figures for `CCCn1c(=O)c2[nH]c(-c3ccc(OCC(=O)NN4C(=O)c5ccccc5C4=O)cc3)nc2n(CCC)c1=O` [Compound 21, 8-[4-[(Carboxymethyl)oxy]phenyl]-1,3-di-(n-propyl)xanthine N,N-Phthaloylhydrazide] were 0.392 ± 0.117 µM, 0.0464 µM, 0.21 µM and 0.359 µM.
For the compound `CCCn1c(=O)[nH]c(=O)c2[nH]c(-c3ccc(OCC(=O)NN4C(=O)C(C)=C(C)C4=O)cc3)nc21` [Compound 15, 8-[4-[(Carboxymethyl)oxy]phenyl]-1H-3-(n-propyl)xanthine N,N-[(1,2-Dimethyl)maleyl]hydrazide], the “% displacement rA2A” value in experiment [1] (rat striatal membranes, [3H]CGS 21680, at 10^−4) is listed as 36 ± 4%. Further, the inhibition constant (Ki) in experiment [2] is 1.9 µM; in experiment [3] it was 8.08 µM; in experiment [4], 5.48 µM.
For the compound `CCCn1c(=O)c2[nH]c(-c3ccc(OCC(=O)NNC(=O)CCC(=O)O)cc3)nc2n(CCC)c1=O` [Compound 9, 8-[4-[(Carboxymethyl)oxy]phenyl]-1,3-di-(n-propyl)xanthine N-[(3-Carboxy)-n-propionyl]hydrazide], the inhibition constant Ki in experiment [1] is 0.174 ± 0.032 µM; in experiment [2], 0.0978 µM; in experiment [3] it was 0.219 µM; in experiment [4] it was 0.795 µM.
As for `CCCn1c(=O)c2[nH]c(-c3ccc(OCC(=O)NN4C(=O)C(C)=C(C)C4=O)cc3)nc2n(CCC)c1=O` [Compound 14, 8-[4-[(Carboxymethyl)oxy]phenyl]-1,3-di-(n-propyl)xanthine N,N-[(1,2-Dimethyl)maleyl]hydrazide], the Ki in experiment [1] was 0.126 ± 0.041 µM; in experiment [2] it was 0.0338 µM; in experiment [3] it was 3.03 µM; in experiment [4] it was 1.97 µM.
Taken in the same sequence, the figures for `CCCn1c(=O)c2[nH]c(-c3ccc(OCC(=O)OCC)cc3)nc2n(CCC)c1=O` [Compound 4b] were 0.128 ± 0.015 µM, 0.0345 µM, 0.203 µM and 0.342 µM.
